Laboratory results as given in patent US4550172A, “Novel heterocyclic compounds as antiallergic agents” (American Home Products Corporation, priority 1984, dated 1985).

System: LTD4 induced bronchoconstriction
Assay: inhibition of LTD4-induced bronchospasm in guinea pigs (SRS-A antagonist properties)
Assay type: in vivo, guinea pigs (male Hartley strain)
Conditions: LTD4 for induction, compound 50 mg/kg intraduodenal, 10 minutes before induction of bronchospasm
Method: The assay of this Example measures the in vivo ability of the components of the invention to inhibit the bronchospasm induced in guinea pigs by the exogenously administered leukotrienes C4 and/or D4. This assay is essentially a measure of the SRS-A antagonist properties of the compounds tested.
This assay is carried out as follows:
Male Hartley strain guinea pigs (350-600 g) are anesthetized with pentobarbital sodium (50 mg/kg, i.p.). The jugular vein is cannulated for injection of drugs and the carotid artery for monitoring blood pressure. The trachea is cannulated for artificial ventilation by a miniature Starling pump and for indirect measurement of respiratory volume changes as described infra. Additional pentobarbital sodium (15 mg/kg, i.v.) is administered to arrest spontaneous respiration. Submaximal bronchoconstrictor responses are established in control animals by varying the dose-levels of leukotriene. Intravenous dose-levels for LTC4 range from 1 to 2 μg/kg and for LTD4 the range is from 0.3 to 1 μg/kg. The aerosol bronchoprovocation dose for LTC4 is generated from 1.6 μM solution and for LTD4 from a 2.0 μM solution.
Test drugs are administered either intravenously, intraduodenally, by aerosol or orally at 1 or 10 minutes before induction of bronchospasm by administration of either LTC4 or LTD4 at the predetermined dose-levels. Aerosols of soluble drugs or leukotrienes are produced in-line for 10 seconds only by actuation of an ultrasonic nebulizer (Monaghan). Aerosolized drug dosage is expressed in terms of solution concentration and by a fixed aerosol exposure time (approximately 10 seconds). Control animals receive saline in place of drug.
Respiratory volume changes are determined by a calibrated piston whose travel is recorded, via a linear transducer, on a Beckman Dynograph recorder. Maximal bronchoconstrictor volume is determined by clamping off the trachea at the end of the experiment. Overflow volumes at 1, 3 and 5 minutes are obtained from the recorded charts.
The overflow volume at 1, 3 and 5 minutes is expressed as a percentage of maximal bronchoconstriction. Combined group values are used from each of these time intervals to determine the inhibitory effect of drugs. [formula] Students t-test for unpaired data is used to determine statistical significance. Dose response curves are generated and ED50 doses are interpolated from the regression lines.
Results for a compound of the invention in this assay, using LTD4 for induction of bronchospasm, is given below: […]

O=C1CCC(=O)N1c1cccc(OCc2nc3ccccc3s2)c1 [Example 1, N-[3-[(2-benzothiazolyl)methoxy]phenyl]pyrrolidin-2,5-dione]
% Inhibition Overflow Volume at 3 min.: 63% | % Inhibition Overflow Volume at 5 min.: 68%

Cn1c(COc2cccc(N3C(=O)CCC3=O)c2)nc2ccccc21 [Example 2, N-[3-[(1-methyl-2-benzimidazolyl)methoxy]phenyl]pyrrpolidin-2,5-dione]
% Inhibition Overflow Volume at 3 min.: 75% | % Inhibition Overflow Volume at 5 min.: 78%
